± gives the standard deviation of the averaged measurements.
Test system: WB-F344
Assay: gap junctional intercellular communication (dye spread) relative to vehicle control (fraction of control); higher = more gap junction communication (less inhibition)
Description: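 Confluent WB-F344 rat liver epithelial cells were pretreated with vehicle, D609 (PC-PLC inhibitor, 50 µM, 20 min), U0126 (MEK1/2 inhibitor, 20 µM, 30 min) or resveratrol (100 µM, 15 min), then exposed to a GJIC-dysregulating chemical at the listed dose and time. GJIC was measured by scalpel loading-dye transfer with Lucifer Yellow (3 min), and the dye-spread area was quantified in ImageJ as a fraction of the vehicle control (FOC). Individual values come from at least 3 independent experiments.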

[1] = pretreatment: D609+GJIC dysreg.
[2] = pretreatment: U0126+GJIC dysreg.
[3] = dose note: (70 uM), pretreatment: D609+GJIC dysreg.
[4] = dose note: (70 uM), pretreatment: GJIC dysreg.
[5] = dose note: (70 uM), pretreatment: RES+GJIC dysreg.
[6] = dose note: (70 uM), pretreatment: U0126+GJIC dysreg.
[7] = dose note: (100 uM), pretreatment: D609+GJIC dysreg.
[8] = dose note: (100 uM), pretreatment: GJIC dysreg.
[9] = dose note: (100 uM), pretreatment: RES+GJIC dysreg.
[10] = dose note: (100 uM), pretreatment: U0126+GJIC dysreg.

| Structure (SMILES) | gap junctional intercellular communication [1] | gap junctional intercellular communication (pretreatment: GJIC dysreg.) | gap junctional intercellular communication (pretreatment: RES+GJIC dysreg.) | gap junctional intercellular communication [2] | further results |
| --- | --- | --- | --- | --- | --- |
| Cc1nc2sccn2c(=O)c1CCN1CCC(=C(c2ccccc2)c2ccc(F)cc2)CC1 (compound abbreviation / co-treatment: R59022, exposure (dose, time): 30-50 µM, 10 min) | 0.848 ± 0.081 | 0.344 ± 0.13 | 0.867 ± 0.16 | 0.641 ± 0.11 | – |
| Clc1ccc(C(c2ccccc2Cl)C(Cl)(Cl)Cl)cc1 (centres undefined) [1,1,1-Trichloro-2-(2-chlorophenyl)-2-(4-chlorophenyl)ethane] (compound abbreviation / co-treatment: DDT, exposure (dose, time): 30 µM,  20 min) | 0.832 ± 0.089 | 0.308 ± 0.053 | 0.777 ± 0.025 | 0.337 ± 0.082 | – |
| Cc1cccc2cc3ccccc3cc12 [1-Methylanthracene] (compound abbreviation / co-treatment: 1-MeA, exposure (dose, time): 70 µM, 10 min) | 0.872 ± 0.094 | 0.278 ± 0.066 | 0.818 ± 0.14 | 0.262 ± 0.067 | – |
| Cc1cccc2c1Cc1ccccc1-2 [1-Methylfluoren] (compound abbreviation / co-treatment: 1-MeFlu, exposure (dose, time): 70 µM, 10 min) | 0.84 ± 0.13 | 0.266 ± 0.076 | 1 ± 0.17 | 0.318 ± 0.052 | – |
| Cc1ccc2ccc3cccc4ccc1c2c34 [1-Methylpyrene] (compound abbreviation / co-treatment: 1-MePyr, exposure (dose, time): 70 µM, 10 min) | 0.956 ± 0.048 | 0.397 ± 0.072 | 0.815 ± 0.15 | 0.345 ± 0.094 | – |
| CCCCCCCCCCCC(=O)OCC(O)CO (centres undefined) [1-Monolaurin] (compound abbreviation / co-treatment: Lau, exposure (dose, time): 150 µM, 10 min) | 0.245 ± 0.028 | 0.229 ± 0.026 | 0.245 ± 0.034 | 0.234 ± 0.034 | – |
| Clc1cc(Cl)c(-c2cc(Cl)c(Cl)cc2Cl)cc1Cl [2,2',4,4',5,5'-Hexachlorobiphenyl] (compound abbreviation / co-treatment: PCB 153, exposure (dose, time): 50 µM, 30 min) | 0.781 ± 0.17 | 0.353 ± 0.093 | 0.857 ± 0.11 | 0.278 ± 0.083 | – |
| Cc1c2ccccc2c(C)c2ccccc12 [9,10-Dimethylanthracene] (compound abbreviation / co-treatment: 9,10-DiMeA, exposure (dose, time): 70-100 µM, 10 min) | – | – | – | – | gap junctional intercellular communication [3]: 0.888 ± 0.038; gap junctional intercellular communication [4]: 0.213 ± 0.06; gap junctional intercellular communication [5]: 0.744 ± 0.14; gap junctional intercellular communication [6]: 0.342; gap junctional intercellular communication [7]: 0.937 ± 0.033; gap junctional intercellular communication [8]: 0.317 ± 0.041; gap junctional intercellular communication [9]: 0.871 ± 0.15; gap junctional intercellular communication [10]: 0.356 ± 0.096 |
| CCCCCCCCCCCCCC(=O)O[C@@H]1[C@@H](C)[C@@]2(O)[C@@H](C=C(CO)C[C@]3(O)C(=O)C(C)=C[C@@H]23)[C@@H]2C(C)(C)[C@]12OC(C)=O [12-O-tetradecanoylphorbol-13-acetate] (compound abbreviation / co-treatment: TPA, exposure (dose, time): 10 nM, 30 min) | 0.309 ± 0.077 | 0.202 ± 0.031 | 1.05 ± 0.13 | 0.967 ± 0.092 | – |
| CCc1cccc(CC)c1N(COC)C(=O)CCl [Alachlor] (compound abbreviation / co-treatment: Alachlor, exposure (dose, time): 185 µM, 25 min) | 0.285 ± 0.08 | 0.259 ± 0.072 | 0.789 ± 0.14 | 0.356 ± 0.12 | – |
| CCCCC/C=C\C/C=C\C/C=C\C/C=C\CCCC(=O)O [Arachidonic acid] (compound abbreviation / co-treatment: AA, exposure (dose, time): 70-100 µM, 15 min) | – | – | – | – | gap junctional intercellular communication [3]: 0.164; gap junctional intercellular communication [4]: 0.196; gap junctional intercellular communication [5]: 0.193; gap junctional intercellular communication [6]: 0.244; gap junctional intercellular communication (dose note: (75 uM), pretreatment: D609+GJIC dysreg.): 0.2; gap junctional intercellular communication (dose note: (75 uM), pretreatment: GJIC dysreg.): 0.2; gap junctional intercellular communication (dose note: (75 uM), pretreatment: RES+GJIC dysreg.): 0.207; gap junctional intercellular communication (dose note: (75 uM), pretreatment: U0126+GJIC dysreg.): 0.216; gap junctional intercellular communication (dose note: (90 uM), pretreatment: D609+GJIC dysreg.): 0.29 ± 0.055; gap junctional intercellular communication (dose note: (90 uM), pretreatment: GJIC dysreg.): 0.279 ± 0.058; gap junctional intercellular communication (dose note: (90 uM), pretreatment: RES+GJIC dysreg.): 0.25 ± 0.032; gap junctional intercellular communication (dose note: (90 uM), pretreatment: U0126+GJIC dysreg.): 0.347 ± 0.025; gap junctional intercellular communication [7]: 0.196; gap junctional intercellular communication [8]: 0.193; gap junctional intercellular communication [9]: 0.189; gap junctional intercellular communication [10]: 0.199 |
| O=C(OOC(=O)c1ccccc1)c1ccccc1 [Benzoylperoxide] (compound abbreviation / co-treatment: BzOOH, exposure (dose, time): 200 µM, 15 min) | 0.373 ± 0.057 | 0.368 ± 0.085 | 0.313 ± 0.084 | 0.33 ± 0.14 | – |
| CC(C)(OOC(C)(C)c1ccccc1)c1ccccc1 [Dicumylperoxide] (compound abbreviation / co-treatment: DiCuOOH, exposure (dose, time): 50 µM, 15 min) | 0.884 ± 0.058 | 0.386 ± 0.088 | 0.829 ± 0.081 | 0.324 ± 0.11 | – |
| c1ccc2c(c1)-c1cccc3cccc-2c13 [Fluoranthene] (compound abbreviation / co-treatment: Fla, exposure (dose, time): 70 µM, 10 min) | 0.718 ± 0.11 | 0.245 ± 0.064 | 0.937 ± 0.23 | 0.285 ± 0.091 | – |
| c1ccc2c(c1)Cc1ccccc1-2 [Fluoren] (compound abbreviation / co-treatment: Flu, exposure (dose, time): 100 µM, 10 min) | 0.884 ± 0.12 | 0.253 ± 0.034 | 0.848 ± 0.12 | 0.309 ± 0.013 | – |
| Cl[C@H]1[C@H](Cl)[C@@H](Cl)[C@@H](Cl)[C@H](Cl)[C@H]1Cl [Lindane] (compound abbreviation / co-treatment: Lindane, exposure (dose, time): 60 µM, 25 min) | 0.335 ± 0.046 | 0.282 ± 0.062 | 0.741 ± 0.048 | 0.695 ± 0.16 | – |
| Oc1c(Cl)c(Cl)c(Cl)c(Cl)c1Cl [Pentachlorophenol] (compound abbreviation / co-treatment: PCP, exposure (dose, time): 50 µM, 10 min) | 0.335 ± 0.068 | 0.282 ± 0.055 | 0.387 ± 0.14 | 0.336 ± 0.023 | – |

From the supplement of paper PMC4449167
